# According to US20260226055A1, “PYRAZOLE DERIVATIVES AS PHD INHIBITORS” (Oxford University Innovation Limited, priority 2023, published 2026):
# pIC50: −log10 of the molar value.
# Target: PHD2 (Homo sapiens, UniProt Q9GZT9)
# Test: PHD2 RF-MS hydroxylation assay
# Type: biochemical
# Details: not given
# Description: In brief, cDNA encoding for the catalytic domain of tPHD2 (181-426 residues) was cloned into the pET28a(+)/pET24a(+) vectors (Novagen), to enable production of tPHD2 (residues 181-426) protein with/without an N-terminal His6-tag. The tPHD2 (residues 181-426) encoding construct was transformed into the Escherichia coli BL21 DE3 cell line; protein production was induced with 0.5 mM […] (3-5 hr at 28° C.). […] The protein was exchanged into 50 mM Tris-HCl buffer (pH 7.5) and concentrated to % 40 mg/ml.
# Tris(hydroxymethyl)aminomethane was from Fisher. […] All inhibition assays were carried out in 384-well polypropylene plates (Greiner Bio-One). […] PHD2 protein was prepared at a concentration of 300 nM in assay buffer and 25 μl dispensed across each 384-well assay plate. […] After loading the C4 SPE was washed with 0.1% formic acid in water to remove non-volatile buffer salts and then peptide was eluted from the SPE with 85% acetonitrile, 15% water containing 0.1% formic acid onto the mass spectrometer. Peptide charge states were monitored in positive mode. […] IC50 values were determined from non-linear regression plots using GraphPad prism.
# SAR studies for PHD2 inhibition were carried out on the compounds of the invention. Compounds were screened against PHD2 using the RF-MS hydroxylation assay.
# PHD2, sequence (Q9GZT9 181-426): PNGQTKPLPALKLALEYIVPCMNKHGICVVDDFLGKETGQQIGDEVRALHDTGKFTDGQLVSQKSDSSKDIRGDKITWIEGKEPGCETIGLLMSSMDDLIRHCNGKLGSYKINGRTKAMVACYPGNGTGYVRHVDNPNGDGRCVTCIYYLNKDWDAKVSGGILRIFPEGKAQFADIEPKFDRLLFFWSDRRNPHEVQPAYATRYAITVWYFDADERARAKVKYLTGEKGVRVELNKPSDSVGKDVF
row,Structure (SMILES),pIC50
1,"O=C(NCc1ccc(-c2ccccc2)cc1)c1ccc(-n2cccn2)cc1O [Compound 16, N-([1,1′-biphenyl]-4-ylmethyl)-2-hydroxy-4-(1H-pyrazol-1-yl)benzamide]",< 5.00
2,"O=C(NCc1ccc(-c2ccccc2)cc1)c1cnc(-n2cccn2)nc1 [Compound 20, N-([1,1′-Biphenyl]-4-ylmethyl)-2-(1H-pyrazol-1-yl)pyrimidine-5-carboxamide]",< 5.00
3,"O=C(NCc1ccc(-c2ccccc2)cc1)c1ccc(-n2cccn2)nc1 [Compound 22, N-([1,1′-Biphenyl]-4-ylmethyl)-6-(1H-pyrazol-1-yl)nicotinamide]",< 5.00
4,"O=C(NCC1CCCCC1)c1cnc(-n2cccn2)cc1O [Compound 44, N-(Cyclohexylmethyl)-4-hydroxy-6-(1H-pyrazol-1-yl)nicotinamide]",< 5.00
5,COc1cc(-n2cc(C(=O)NCc3ccc(-c4ccccc4)cc3)cn2)ncc1C#N [Compound 93],< 5.00
6,N#Cc1ccc(-n2cc(C(=O)NCc3ccc(-c4ccccc4)cc3)cn2)nc1 [Compound 97],< 5.00
7,O=C(O)c1ccnc(-n2cc(C(=O)NCc3ccc(-c4ccccc4)cc3)cn2)c1 [Compound 103],< 5.00
8,O=C(Nc1ccc(-c2ccccc2)cc1)c1cnn(-c2cc(O)ccn2)c1 [Compound 108],< 5.00

# Test system: not given
# Test: not given
# Details: mouse, in vivo, ip
row,Structure (SMILES),adverse effects
1,"O=C(NCC1CCC(C(F)(F)F)CC1)c1cnc(-n2cccn2)cc1O (centres unmarked) [Compound 68, 4-Hydroxy-6-(1H-pyrazol-1-yl)-N-((4-(trifluoromethyl)cyclohexyl)methyl)nicotinamide]",no adverse effects

# Test system: HIF1-α in Hep3B cells
# Test: Immunoblots of Hep3B cells (HIF1-α protein levels)
# Type: cell-based
# Design: dose or concentration left out as unconfirmed
# Details: 3 hours
# Description: Cells were grown to 90% confluency.
# Hep3B cells were treated with compounds 117, 119, 122 and 123 of the invention (Examples 93, 95, 98 and 99) at 100 µM (A) and 20 µM (B) PHD inhibitors for 3 hours.
row,Structure (SMILES),HIF-1α stabilisation (immunoblot)
1,"O=C(NCc1ccc(-c2ccccc2)cc1)c1cnc2c(cnc3ccnn32)c1O [Compound 117, N-([1,1′-Biphenyl]-4-ylmethyl)-6-hydroxypyrazolo[1,5-a]pyrido[3,2-e]pyrimidine-7-carboxamide]",stabilise HIF-1α
2,"O=C(Nc1ccc(-c2ccccc2)cc1)c1cnc2c(cnc3ccnn32)c1O [Compound 119, N-([1,1′-Biphenyl]-4-yl)-6-hydroxypyrazolo[1,5-a]pyrido[3,2-e]pyrimidine-7-carboxamide]",stabilise HIF-1α
3,"Cc1cc2nc(C)c3c(O)c(C(=O)NCc4ccc(-c5ccccc5)cc4)cnc3n2n1 [Compound 122, N-([1,1′-Biphenyl]-4-ylmethyl)-6-hydroxy-2,5-dimethylpyrazolo[1,5-a]pyrido[3,2-e]pyrimidine-7-carboxamide]",stabilise HIF-1α
4,"Cc1cc2nc(C)c3c(O)c(C(=O)NCc4ccc(C(F)(F)F)cc4)cnc3n2n1 [Compound 123, 6-Hydroxy-2,5-Dimethyl-N-(4-(trifluoromethyl)benzyl)pyrazolo[1,5-a]pyrido[3,2-e]pyrimidine-7-carboxamide]",stabilise HIF-1α

# Test system: not listed separately
# Test: In vivo blood counts in C57BL/6 mice
# Details: twice daily IP, 8 days
# Description: Values are shown pre-treatment, and 4 and 8 days after treatment.
# Blood samples were taken either pre-treatment, on the 4th day into treatment or on the 8th day of treatment. Blood samples were analysed using Celltac Alpha MEK-6500K.
# Samples were taken either pre-treatment, on the 4th day into treatment or on the 8th day of treatment. Blood samples were analysed using Celltac Alpha MEK-6500K.
row,Structure (SMILES),adverse effects
1,O=C(O)CNC(=O)C1C(=O)N(C2CCCCC2)C(=O)N(C2CCCCC2)C1=O [Daprodustat],no adverse effects
